{"source": "paper PMC8413292", "about": "“Small-molecule polymerase inhibitor protects non-human primates from measles and reduces shedding” (Nature Communications, 2021)", "tested_on": "MV/FrankfurtMain.DEU/17.11 (genotype D8)", "experiment": "PBMC-associated viremia titers (limited dilution, TCID50/10^6 PBMCs)", "assay_type": "in vivo, squirrel monkeys (Saimiri sciureus)", "details": "for Viral titers: individual animals", "experimental": "White blood cell counts, viral load quantification in PBMCs, and quantification of neutralizing antibody titers were performed as follows: for white blood cell counts, blood was diluted 1:100 in 3% acetic acid and cells were counted using a Neubauer chamber. For viral load quantification in PBMCs, blood was centrifuged at 3000 rpm for 15 min and serum was frozen at −20 °C until further use. Red blood cell lysis was performed and the remaining PBMCs were counted using a Neubauer chamber. Viral titers in PBMCs were quantified in quadruplicates using limited dilution method and calculated as TCID50/10^6 PBMCs. Neutralizing antibody titers were quantified by incubating MeV with 2-fold serial dilutions of the respective serum for 20 min at room temperature in quadruplicates. Vero/hSLAM cells were added and incubated for 3 days at 37 °C. Neutralizing antibody titers are expressed as the reciprocal of the highest serum dilution showing no signs of infection. For virus titration from throat swabs, swabs were placed in 150 μl DMEM with 3% penicillin/streptomycin and the titer was quantified by limited dilution method.", "note": "Several values for one entry are separate records, joined by “and”; a condition that tells them apart may be missing. Identical values can stand only once."}
{"compound": "Cn1nc(C(F)(F)F)cc1C(=O)Nc1ccc(S(=O)(=O)N2CCCC[C@H]2CCN2CCOCC2)cc1", "note": "[ERDRP-0519]", "values": [{"measurement": "Viral titers", "setting": "therapeutic (d3) group, day 14", "value": "0.7375 log10(TCID50/106 PBMCs)"}, {"measurement": "PBMC Titers, group mean (Mean 2)", "setting": "therapeutic (d3), Row 1 (1st of 7 time points)", "value": 0}, {"measurement": "PBMC Titers, group mean (Mean 2)", "setting": "therapeutic (d3), Row 2 (2nd of 7 time points)", "value": 0.4783}, {"measurement": "PBMC Titers, group mean (Mean 2)", "setting": "therapeutic (d3), Row 3 (3rd of 7 time points)", "value": 0.6785}, {"measurement": "PBMC Titers, group mean (Mean 2)", "setting": "therapeutic (d3), Row 4 (4th of 7 time points)", "value": 0.7141}, {"measurement": "PBMC Titers, group mean (Mean 2)", "setting": "therapeutic (d3), Row 5 (5th of 7 time points)", "value": 0.1233}, {"measurement": "PBMC Titers, group mean (Mean 2)", "setting": "therapeutic (d3), Row 6 (6th of 7 time points)", "value": 0}, {"measurement": "PBMC Titers, group mean (Mean 2)", "setting": "therapeutic (d3), Row 7 (7th of 7 time points)", "value": 0}, {"measurement": "Viral titers", "setting": "therapeutic (d7) group, day 3", "value": "0.6162 log10(TCID50/106 PBMCs) and 0.7122 log10(TCID50/106 PBMCs) and 0.8794 log10(TCID50/106 PBMCs) and 0.6642 log10(TCID50/106 PBMCs) and 1.712 log10(TCID50/106 PBMCs)"}, {"measurement": "Viral titers", "setting": "therapeutic (d7) group, day 7", "value": "2.108 log10(TCID50/106 PBMCs) (2×) and 1.9431 log10(TCID50/106 PBMCs) and 1.854 log10(TCID50/106 PBMCs) and 1.9914 log10(TCID50/106 PBMCs) and 1.699 log10(TCID50/106 PBMCs)"}, {"measurement": "Viral titers", "setting": "therapeutic (d7) group, day 10", "value": "2.513 log10(TCID50/106 PBMCs) and 2.092 log10(TCID50/106 PBMCs) and 2.1549 log10(TCID50/106 PBMCs) and 2.936 log10(TCID50/106 PBMCs) and 2.626 log10(TCID50/106 PBMCs) and 2.438 log10(TCID50/106 PBMCs)"}, {"measurement": "Viral titers", "setting": "therapeutic (d7) group, day 14", "value": "0.7959 log10(TCID50/106 PBMCs) and 0.3979 log10(TCID50/106 PBMCs) and 1.735 log10(TCID50/106 PBMCs)"}, {"measurement": "Viral titers", "setting": "therapeutic (d7) group, day 17", "value": "1.174 log10(TCID50/106 PBMCs) and 0.6271 log10(TCID50/106 PBMCs)"}, {"measurement": "PBMC Titers, group mean (Mean 2)", "setting": "therapeutic (d7), Row 1 (1st of 7 time points)", "value": 0}, {"measurement": "PBMC Titers, group mean (Mean 2)", "setting": "therapeutic (d7), Row 2 (2nd of 7 time points)", "value": 0.7636}, {"measurement": "PBMC Titers, group mean (Mean 2)", "setting": "therapeutic (d7), Row 3 (3rd of 7 time points)", "value": 1.95}, {"measurement": "PBMC Titers, group mean (Mean 2)", "setting": "therapeutic (d7), Row 4 (4th of 7 time points)", "value": 2.46}, {"measurement": "PBMC Titers, group mean (Mean 2)", "setting": "therapeutic (d7), Row 5 (5th of 7 time points)", "value": 0.49}, {"measurement": "PBMC Titers, group mean (Mean 2)", "setting": "therapeutic (d7), Row 6 (6th of 7 time points)", "value": 0.3}, {"measurement": "PBMC Titers, group mean (Mean 2)", "setting": "therapeutic (d7), Row 7 (7th of 7 time points)", "value": 0}, {"measurement": "effect on height of maximum virus load", "setting": "treatment initiated at day 7 post-infection, maximum on day 10", "value": "no significant effect on the height of maximum virus load"}, {"measurement": "PBMC Titers, Mean Diff, untreated vs. treated", "setting": "untreated vs. prophylactic, Row 1 (1st of 7 time points)", "value": 0}, {"measurement": "PBMC Titers, Mean Diff, untreated vs. treated", "setting": "untreated vs. prophylactic, Row 2 (2nd of 7 time points)", "value": 0.1201}, {"measurement": "PBMC Titers, Mean Diff, untreated vs. treated", "setting": "untreated vs. prophylactic, Row 3 (3rd of 7 time points)", "value": 2.622}, {"measurement": "PBMC Titers, Mean Diff, untreated vs. treated", "setting": "untreated vs. prophylactic, Row 4 (4th of 7 time points)", "value": 1.541}, {"measurement": "PBMC Titers, Mean Diff, untreated vs. treated", "setting": "untreated vs. prophylactic, Row 5 (5th of 7 time points)", "value": 0.3677}, {"measurement": "PBMC Titers, Mean Diff, untreated vs. treated", "setting": "untreated vs. prophylactic, Row 6 (6th of 7 time points)", "value": 0.1017}, {"measurement": "PBMC Titers, Mean Diff, untreated vs. treated", "setting": "untreated vs. prophylactic, Row 7 (7th of 7 time points)", "value": -0.3917}, {"measurement": "PBMC Titers, Mean Diff, untreated vs. treated", "setting": "untreated vs. therapeutic (d3), Row 1 (1st of 7 time points)", "value": 0}, {"measurement": "PBMC Titers, Mean Diff, untreated vs. treated", "setting": "untreated vs. therapeutic (d3), Row 2 (2nd of 7 time points)", "value": -0.06733}, {"measurement": "PBMC Titers, Mean Diff, untreated vs. treated", "setting": "untreated vs. therapeutic (d3), Row 3 (3rd of 7 time points)", "value": 2.195}, {"measurement": "PBMC Titers, Mean Diff, untreated vs. treated", "setting": "untreated vs. therapeutic (d3), Row 4 (4th of 7 time points)", "value": 1.128}, {"measurement": "PBMC Titers, Mean Diff, untreated vs. treated", "setting": "untreated vs. therapeutic (d3), Row 5 (5th of 7 time points)", "value": 0.2444}, {"measurement": "PBMC Titers, Mean Diff, untreated vs. treated", "setting": "untreated vs. therapeutic (d3), Row 6 (6th of 7 time points)", "value": 0.23}, {"measurement": "PBMC Titers, Mean Diff, untreated vs. treated", "setting": "untreated vs. therapeutic (d3), Row 7 (7th of 7 time points)", "value": 0}, {"measurement": "PBMC Titers, Mean Diff, untreated vs. treated", "setting": "untreated vs. therapeutic (d7), Row 1 (1st of 7 time points)", "value": 0}, {"measurement": "PBMC Titers, Mean Diff, untreated vs. treated", "setting": "untreated vs. therapeutic (d7), Row 2 (2nd of 7 time points)", "value": -0.3527}, {"measurement": "PBMC Titers, Mean Diff, untreated vs. treated", "setting": "untreated vs. therapeutic (d7), Row 3 (3rd of 7 time points)", "value": 0.9232}, {"measurement": "PBMC Titers, Mean Diff, untreated vs. treated", "setting": "untreated vs. therapeutic (d7), Row 4 (4th of 7 time points)", "value": -0.6175}, {"measurement": "PBMC Titers, Mean Diff, untreated vs. treated", "setting": "untreated vs. therapeutic (d7), Row 5 (5th of 7 time points)", "value": -0.1223}, {"measurement": "PBMC Titers, Mean Diff, untreated vs. treated", "setting": "untreated vs. therapeutic (d7), Row 6 (6th of 7 time points)", "value": -0.06996}, {"measurement": "PBMC Titers, Mean Diff, untreated vs. treated", "setting": "untreated vs. therapeutic (d7), Row 7 (7th of 7 time points)", "value": 0}]}
